According to publication PMC3853718 (Journal of Translational Medicine, 2013):
Where two headings read alike, the source gives them in different places. Marks after values point to notes of the source that are not given here.

What was measured:
[1] = system: subjects with advanced malignancies; conditions: human, in vivo, iv, 28 days
[2] = system: Rb protein phosphorylation; assay: Immunohistochemistry for phospho-Rb in skin biopsies; type: in vivo, human
Protocol: . The phosphorylation status of the Rb protein in the proliferative layer of skin and in the proliferating cells at the base of hair follicles was determined by IHC utilizing a rabbit anti-phospho-Rb antibody diluted to 0.83 μg/mL or 0.67 μg/mL. Immunohistochemistry staining was scored 0 (no staining relative to background), 1+ (weak staining), 2+ (moderate staining), or 3+ (strong staining); H-score was calculated as a measure of overall immunoreactivity in a given sample, using the following formula: H-score = (% of cells with 3+) × 3 + (% of cells with 2+) × 2 + (% of cells with 1+) × 1. Subjects were to be categorized as responders if no degree of staining was detected with the anti-phospho-Rb antibody.

[3] = system: myeloma and NSCLC mouse xenograft models; conditions: at a dose 33% of the MAD; cited from earlier work
Rb phosphorylation = conditions: cited from earlier work
mouse xenograft model = conditions: cited from earlier work
[4] = Plasma pharmacokinetics after 2-hour IV infusion (LC-MS/MS); conditions: for AUC(0-inf): read-out: AUC(I) Mean; for AUC(0-t): read-out: AUC(tf) Mean
[5] = system: PHA-stimulated lymphocytes in whole blood; assay: Ex vivo phytohemagglutinin lymphocyte stimulation assay (BrdU incorporation)
Protocol: Whole blood isolated from subjects was treated with phytohemagglutinin (PHA) to stimulate cell division in lymphocytes. Following a brief 30-minute exposure to bromodeoxyuridine (BrdU), cells were harvested and stained using an FITC-conjugated antibody specific for BrdU, counterstained with propidium iodide/RNase A, and analyzed using a FACSCalibur flow cytometer.

patients = conditions: higher doses (up to 57 mg/m^2), once-every-21-days dosing schedule; cited from earlier work
solid tumors = assay: Tumor response by CT or MRI and RECIST; type: in vivo, human
nude mice = conditions: once-daily administration for 7 days in nude mice; cited from earlier work

CCc1cnn2c(NCc3ccc[n+]([O-])c3)cc(N3CCCC[C@H]3CCO)nc12 [dinaciclib]
recommended phase 2 dose (RP2D) [1]: 12 mg/m^2
mean phospho-Rb H score following treatment ([2]; RP2D 12 mg/m^2, 11 subjects, skin biopsy 4 hours after treatment, before treatment 18.55): 17.64
response based on phospho-Rb staining ([2]; responder = complete loss of phospho-Rb staining): no subjects were deemed to have achieved a response
tumor response in xenograft models [3]: complete tumor regression
Rb phosphorylation in mouse skin biopsies (Rb phosphorylation; 2 hours post treatment): partial loss
Rb phosphorylation in mouse skin biopsies (Rb phosphorylation; 4 hours post treatment): complete loss of Rb phosphorylation
minimum effective dose, defined as >50% tumor growth inhibition (mouse xenograft model): 5 mg/kg
CL dependence on dose ([4]; 0.33 to 14 mg/m^2): dose independent
time at which Cmax was observed after the initiation of the infusion ([4]; 2-hour IV administration): approximately 2 hours
CL Mean ([4]; Day 1, 0.33 mg/m^2, N 1): 12.4 L/hr/m^2
Vd Mean ([4]; Day 1, 0.33 mg/m^2, N 1): 35.9 L/m^2
t½ Mean ([4]; Day 1, 0.33 mg/m^2, N 1): 2.01 h
CL Mean ([4]; Day 1, 0.66 mg/m^2, N 1): 18.5 L/hr/m^2
Cmax Mean ([4]; Day 1, 0.66 mg/m^2, N 1): 18.6 ng/mL
Tmax Median ([4]; Day 1, 0.66 mg/m^2, N 1): 2 h
Vd Mean ([4]; Day 1, 0.66 mg/m^2, N 1): 39.4 L/m^2
t½ Mean ([4]; Day 1, 0.66 mg/m^2, N 1): 1.48 h
Cmax Mean ([4]; Day 1, 1.32 mg/m^2, N 1): 63.8 ng/mL
Tmax Median ([4]; Day 1, 1.32 mg/m^2, N 1): 2 h
Cmax Mean ([4]; Day 1, 2.59 mg/m^2, N 3 (n=1)): 100^e ng/mL
Tmax Median ([4]; Day 1, 2.59 mg/m^2, N 3 (n=1)): 1^e hr
CL Mean ([4]; Day 1, 2.59 mg/m^2, N 3 (n=2)): 12.8^d L/hr/m^2
Vd Mean ([4]; Day 1, 2.59 mg/m^2, N 3 (n=2)): 61.4^d L/m^2
t½ Mean ([4]; Day 1, 2.59 mg/m^2, N 3 (n=2)): 3.28^d hr
CL Mean ([4]; Day 1, 3.63 mg/m^2, N 7 (n=6)): 11.2^h L/hr/m^2
Cmax Mean ([4]; Day 1, 3.63 mg/m^2, N 7 (n=6)): 210^i ng/mL
Tmax Median ([4]; Day 1, 3.63 mg/m^2, N 7 (n=6)): 1^i hr
Vd Mean ([4]; Day 1, 3.63 mg/m^2, N 7 (n=6)): 40.2^h L/m^2
t½ Mean ([4]; Day 1, 3.63 mg/m^2, N 7 (n=6)): 2.9^h hr
CL Mean ([4]; Day 1, 5.08 mg/m^2, N 3): 15.9 L/hr/m^2
Vd Mean ([4]; Day 1, 5.08 mg/m^2, N 3): 72.7 L/m^2
CL Mean ([4]; Day 1, 7.11 mg/m^2, N 7): 14.1 L/hr/m^2
Vd Mean ([4]; Day 1, 7.11 mg/m^2, N 7): 61.7 L/m^2
CL Mean ([4]; Day 1, 10 mg/m^2, N 3): 16.1 L/hr/m^2
Vd Mean ([4]; Day 1, 10 mg/m^2, N 3): 68.5 L/m^2
CL Mean ([4]; Day 1, 12 mg/m^2, N 11): 12.1 L/hr/m^2
Vd Mean ([4]; Day 1, 12 mg/m^2, N 11): 55.4 L/m^2
CL Mean ([4]; Day 1, 14 mg/m^2, N 5): 9.24 L/hr/m^2
Vd Mean ([4]; Day 1, 14 mg/m^2, N 5): 39.8 L/m^2
CL Mean ([4]; Day 15, 0.33 mg/m^2, N 1): 7.67 L/hr/m^2
Vd Mean ([4]; Day 15, 0.33 mg/m^2, N 1): 51 L/m^2
t½ Mean ([4]; Day 15, 0.33 mg/m^2, N 1): 4.61 h
CL Mean ([4]; Day 15, 0.66 mg/m^2, N 1): 23.9 L/hr/m^2
Vd Mean ([4]; Day 15, 0.66 mg/m^2, N 1): 57.6 L/m^2
CL Mean ([4]; Day 15, 1.32 mg/m^2, N 1): 9.83 L/hr/m^2
Vd Mean ([4]; Day 15, 1.32 mg/m^2, N 1): 48 L/m^2
CL Mean ([4]; Day 15, 2.59 mg/m^2, N 3 (n=2)): 15.6^m L/hr/m^2
Vd Mean ([4]; Day 15, 2.59 mg/m^2, N 3 (n=2)): 80.7^m L/m^2
CL Mean ([4]; Day 15, 3.63 mg/m^2, N 6 (n=3)): 12.5° L/hr/m^2
Vd Mean ([4]; Day 15, 3.63 mg/m^2, N 6 (n=3)): 71.6° L/m^2
CL Mean ([4]; Day 15, 5.08 mg/m^2, N 2): 14.6 L/hr/m^2
Cmax Mean ([4]; Day 15, 5.08 mg/m^2, N 2): 147 ng/mL
Tmax Median ([4]; Day 15, 5.08 mg/m^2, N 2): 2 h
Vd Mean ([4]; Day 15, 5.08 mg/m^2, N 2): 66.2 L/m^2
t½ Mean ([4]; Day 15, 5.08 mg/m^2, N 2): 3.17 h
Cmax Mean ([4]; Day 15, 7.11 mg/m^2, N 7): 306 ng/mL
Tmax Median ([4]; Day 15, 7.11 mg/m^2, N 7): 1 h
CL Mean ([4]; Day 15, 7.11 mg/m^2, N 7 (n=6)): 12.4^q L/hr/m^2
Vd Mean ([4]; Day 15, 7.11 mg/m^2, N 7 (n=6)): 49.9^q L/m^2
t½ Mean ([4]; Day 15, 7.11 mg/m^2, N 7 (n=6)): 2.71^q hr
CL Mean ([4]; Day 15, 10 mg/m^2, N 3): 15.2 L/hr/m^2
Cmax Mean ([4]; Day 15, 10 mg/m^2, N 3): 321 ng/mL
Tmax Median ([4]; Day 15, 10 mg/m^2, N 3): 2 h
Vd Mean ([4]; Day 15, 10 mg/m^2, N 3): 90.6 L/m^2
t½ Mean ([4]; Day 15, 10 mg/m^2, N 3): 4.14 h
CL Mean ([4]; Day 15, 12 mg/m^2, N 10): 11.5 L/hr/m^2
Cmax Mean ([4]; Day 15, 12 mg/m^2, N 10): 526 ng/mL
Tmax Median ([4]; Day 15, 12 mg/m^2, N 10): 2 h
Vd Mean ([4]; Day 15, 12 mg/m^2, N 10): 49.3 L/m^2
t½ Mean ([4]; Day 15, 12 mg/m^2, N 10): 3.16 h
CL Mean ([4]; Day 15, 14 mg/m^2, N 4): 13.9 L/hr/m^2
Cmax Mean ([4]; Day 15, 14 mg/m^2, N 4): 568 ng/mL
Tmax Median ([4]; Day 15, 14 mg/m^2, N 4): 2 h
Vd Mean ([4]; Day 15, 14 mg/m^2, N 4): 70.2 L/m^2
t½ Mean ([4]; Day 15, 14 mg/m^2, N 4): 3.43 h
accumulation in plasma ([4]; days 1, 8, 15 of cycle 1 and day 1 of cycle 2): does not accumulate in plasma
AUC(0-inf) ([4]; Day 1, 0.33 mg/m^2, N 1): 0.0267 µg·h/mL
AUC(0-inf) ([4]; Day 1, 0.66 mg/m^2, N 1): 0.0357 µg·h/mL
AUC(0-inf) ([4]; Day 1, 2.59 mg/m^2, N 3 (n=2)): 0.214 µg·h/mL
AUC(0-inf) ([4]; Day 1, 3.63 mg/m^2, N 7 (n=6)): 0.458 µg·h/mL
AUC(0-inf) ([4]; Day 15, 5.08 mg/m^2, N 2): 0.354 µg·h/mL
AUC(0-inf) ([4]; Day 15, 7.11 mg/m^2, N 7 (n=6)): 0.686 µg·h/mL
AUC(0-inf) ([4]; Day 15, 10 mg/m^2, N 3): 0.722 µg·h/mL
AUC(0-inf) ([4]; Day 15, 12 mg/m^2, N 10): 1.27 µg·h/mL
AUC(0-inf) ([4]; Day 15, 14 mg/m^2, N 4): 1.18 µg·h/mL
AUC(0-t) ([4]; Day 1, 0.33 mg/m^2, N 1): 0.0261 µg·h/mL
AUC(0-t) ([4]; Day 1, 0.66 mg/m^2, N 1): 0.0353 µg·h/mL
AUC(0-t) ([4]; Day 1, 1.32 mg/m^2, N 1): 0.112 µg·h/mL
AUC(0-t) ([4]; Day 1, 2.59 mg/m^2, N 3): 0.809 µg·h/mL
AUC(0-t) ([4]; Day 1, 3.63 mg/m^2, N 7): 0.465 µg·h/mL
AUC(0-t) ([4]; Day 1, 10 mg/m^2, N 3): 0.681 µg·h/mL
AUC(0-t) ([4]; Day 15, 0.66 mg/m^2, N 1): 0.0272 µg·h/mL
AUC(0-t) ([4]; Day 15, 2.59 mg/m^2, N 3): 0.739 µg·h/mL
AUC(0-t) ([4]; Day 15, 3.63 mg/m^2, N 6): 0.401 µg·h/mL
AUC(0-t) ([4]; Day 15, 7.11 mg/m^2, N 7): 0.71 µg·h/mL
AUC(0-t) ([4]; Day 15, 10 mg/m^2, N 3): 0.704 µg·h/mL
AUC(0-t) ([4]; Day 15, 12 mg/m^2, N 10): 1.27 µg·h/mL
plasma concentration at which BrdU incorporation was completely inhibited ([5]; 46 subjects, 0.33 to 14 mg/m^2): > 200 ng/mL
BrdU response rate ([5]; RP2D 12 mg/m^2, 7 evaluable subjects, responder = less than 5% BrdU incorporation, 2-sided 95% CI: 59%, 100%): 100%
Mean percent difference in BrdU uptake (95% CI) ([5]; RP2D 12 mg/m^2, Day 1, Predose – 2 hours, 7 patients): 10.72 (4.69, 16.75) percent
Mean percent difference in BrdU uptake (95% CI) ([5]; RP2D 12 mg/m^2, Day 1, Predose – 3 hours, 7 patients): 9.28 (1.44, 17.13) percent
Mean percent difference in BrdU uptake (95% CI) ([5]; RP2D 12 mg/m^2, Day 1, Predose – 4 hours, 7 patients): 6.05 (-4.03, 16.12) percent
Mean percent difference in BrdU uptake (95% CI) ([5]; RP2D 12 mg/m^2, Day 1, Predose – 6 hours, 7 patients): 10.16 (3.89, 16.43) percent
Mean percent difference in BrdU uptake (95% CI) ([5]; RP2D 12 mg/m^2, Day 1, Predose – 8 hours, 6 patients): 8.76 (2.87, 14.65) percent
Mean percent difference in BrdU uptake (95% CI) ([5]; RP2D 12 mg/m^2, Day 15, Predose – 2 hours, 7 patients): 14.82 (6.02, 23.61) percent
Mean percent difference in BrdU uptake (95% CI) ([5]; RP2D 12 mg/m^2, Day 15, Predose – 4 hours, 7 patients): 5.47 (-4.17, 15.12) percent
Mean percent difference in BrdU uptake (95% CI) ([5]; RP2D 12 mg/m^2, Day 15, Predose – 8 hours, 5 patients): 16.48 (5.63, 27.34) percent
BrdU incorporation ([5]; majority of samples, at plasma concentration of 100 ng/mL): less than 5%
DLT (patients): Neutropenia
Number of cycles (solid tumors; Subject 2902, NSCLC, 0.66 mg/m^2, stable disease): 6
Number of cycles (solid tumors; Subject 2910, Pseudomyxoma peritonei, 2.59 mg/m^2, stable disease): 9
Number of cycles (solid tumors; Subject 2913, Prostate cancer, 3.63 mg/m^2, stable disease): 4
Number of cycles (solid tumors; Subject 2920, Melanoma, 3.63 mg/m^2, stable disease): 10
Number of cycles (solid tumors; Subject 2926, Sarcoma, 7.11 mg/m^2, stable disease): 12
Number of cycles (solid tumors; Subject 2928, Gastrointestinal stromal tumor, 7.11 mg/m^2, stable disease): 10
Number of cycles (solid tumors; Subject 2931, Esophageal carcinoma, 7.11 mg/m^2, stable disease): 11
Number of cycles (solid tumors; Subject 2932, Adenoid cyst carcinoma, 7.11 mg/m^2, stable disease): 5
Number of cycles (solid tumors; Subject 2937, Adenoid cyst carcinoma, 14.0 mg/m^2, stable disease): 8
Number of cycles (solid tumors; Subject 2945, NSCLC, 12.0 mg/m^2, stable disease): 4
subjects with prolonged SD for at least 4 cycles of treatment (solid tumors; all dose levels): at least 10 subjects
complete or partial responses (RECIST) (solid tumors; subjects with solid tumors, all dose levels): no observed complete or partial responses
maximum tolerated dose, defined as the dose associated with 20% weight loss (nude mice): 60 mg/kg
